Laboratory results as given in patent US9156811B2 (priority 2008, dated 2015).
Read-outs that look alike come from different tables or passages of the source.

Columns and labels:
[1] = test system: Trypanosome (T. brucei brucei); test: In-vitro antitrypanosomal efficacy assay (cell growth, resazurin); assay type: cell-based
[2] = target: T. brucei N-myristoyl transferase (Trypanosoma brucei brucei (strain 927/4 GUTat10.1), UniProt Q388H8); test: biochemical; assay type: biochemical
[3] = value printed without enzyme tag in the NMT Enzyme column (taken as T. brucei NMT), read-out: IC50 (μM) NMT Enzyme
[4] = value with no enzyme tag in the cell, taken as T. brucei NMT, read-out: IC50 (μM) NMT Enzyme

Chain of T. brucei N-myristoyl transferase (Q388H8 1-446): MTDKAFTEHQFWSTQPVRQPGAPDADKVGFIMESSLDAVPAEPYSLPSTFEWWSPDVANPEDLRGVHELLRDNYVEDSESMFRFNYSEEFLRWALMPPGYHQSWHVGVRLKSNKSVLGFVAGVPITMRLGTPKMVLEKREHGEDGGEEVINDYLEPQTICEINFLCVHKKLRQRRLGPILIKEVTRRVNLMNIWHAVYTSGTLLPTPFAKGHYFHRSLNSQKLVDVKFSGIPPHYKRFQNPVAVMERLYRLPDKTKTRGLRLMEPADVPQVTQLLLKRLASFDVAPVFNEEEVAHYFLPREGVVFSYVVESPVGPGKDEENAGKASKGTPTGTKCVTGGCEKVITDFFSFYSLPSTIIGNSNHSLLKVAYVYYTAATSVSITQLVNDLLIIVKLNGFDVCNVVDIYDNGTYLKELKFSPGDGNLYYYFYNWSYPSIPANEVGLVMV

IC50 [2, 3]	IC50 [2, 4]	IC50 ([2]; T. brucei NMT, value without parentheses, read-out: IC50 (μM) NMT Enzyme (T. brucei NMT))	Compound	ED50 (μM) T. brucei ([1]; T. brucei cell growth)	ED50 (μM) T. brucei ([1]; T. brucei brucei, blood stream form, variant 221)
61.6 µM	–	–	Cc1nn(C)c(C)c1N[S+](=O)([O-])c1ccc(CSc2ccc(Cl)cc2Cl)cc1 [DDD85610]	>1 µM	–
19 µM	–	–	COc1cc(NCc2ccc([S+](=O)([O-])Nc3c(C)nn(C)c3C)cc2)cc(OC)c1OC [DDD73501]	>1 µM	–
> 100 µM	–	–	Cc1cc(C(=O)O)cc([S+](=O)([O-])Nc2c(C)nn(C)c2C)c1C [DDD71608]	>1 µM	–
1 µM	–	–	Cc1nn(C)c(C)c1N[S+](=O)([O-])c1ccc(NCCCO)nc1 [DDD73222]	>1 µM	–
3.5 µM	–	–	Cc1nn(C)c(C)c1N[S+](=O)([O-])c1ccc2c(c1)OCCCO2 [DDD71230]	>1 µM	–
26.9 µM	–	–	Cc1nn(C)c(C)c1N[S+](=O)([O-])c1c(Cl)cc(-c2cccc3cnccc23)cc1Cl [DDD73278]	>1 µM	–
11.1 µM	–	–	Cc1nn(C)c(C)c1N[S+](=O)([O-])c1ccc(COCCn2ccnc2)cc1 [DDD85628]	>1 µM	–
20.7 µM	–	–	Cc1nn(C)c(C)c1N[S+](=O)([O-])c1c(Cl)cc(-c2cc3ccccc3o2)cc1Cl [DDD73280]	>1 µM	–
30 µM	–	–	COc1cc(C)c([S+](=O)([O-])Nc2ccncn2)c(C)c1C [DDD71295]	>1 µM	–
> 100 µM	–	–	Cc1nn(C)c(C)c1N[S+](=O)([O-])c1ccc(Nc2ccc(Oc3ccccc3)cc2)nc1 [DDD73483]	>1 µM	–
–	0.027 µM	–	Cc1nn(C)c(C)c1N[S+](=O)([O-])c1ccc(CCCN2CCN(C)CC2)cc1Cl [DDD90058]	0.20 µM	–
32.6 µM	–	–	Cc1nn(C)c(C)c1N[S+](=O)([O-])c1ccc(C#N)cc1 [DDD71238]	>1 µM	–
15.9 µM	–	–	Cc1nn(C)c(C)c1N[S+](=O)([O-])c1ccc2c(c1)CC(=O)N2 [DDD71244]	>1 µM	–
5.8 µM	–	–	Cc1nn(C)c(C)c1N[S+](=O)([O-])c1ccc(CN2C(=O)CSC2=O)cc1 [DDD73243]	>1 µM	–
–	1 µM	–	Cc1nn(C)c(C)c1N[S+](=O)([O-])c1ccc(NCCO)nc1 [DDD86293]	>1 µM	–
–	1 µM	–	CNCCNc1cc(-c2cc(Cl)c([S+](=O)([O-])Nc3c(C)nn(C)c3C)c(Cl)c2)ccn1 [DDD86297, 2,6-Dichloro-4-[2-(2-methylamino-ethylamino)-pyridin-4-yl]-N-(1,3,6-trimethyl-1H-pyrazol-4-yl)-benzenesulfonamide]	>1 µM	–
38.7 µM	–	–	Cc1nn(C)c(C)c1N[S+](=O)([O-])c1ccc(NCCN2CCOCC2)nc1 [DDD73239]	>50 µM	–
3.3 µM	–	–	COc1ccc(SCc2ccc([S+](=O)([O-])Nc3c(C)nn(C)c3C)cc2)cc1OC [DDD85604]	>1 µM	–
0.76 µM	–	–	COc1ccc(SCc2ccc([S+](=O)([O-])Nc3c(C)nn(C)c3C)cc2)cc1 [DDD73231]	6.7 µM	–
41 µM	–	–	COc1ccc([S+](=O)([O-])Nc2c(C)nn(C)c2C)cc1NC(C)=O [DDD71622]	>1 µM	–
> 100 µM	–	–	Cc1ccc(C(C)(C)C)cc1[S+](=O)([O-])Nc1c(C)nn(C)c1C [DDD71251]	>1 µM	–
32 µM	–	–	Cc1nn(C)c(C)c1N[S+](=O)([O-])c1ccc(-c2cc(C(F)(F)F)n(C)n2)s1 [DDD73242]	>1 µM	–
28.4 µM	–	–	CCCn1nc(C)c(N[S+](=O)([O-])c2c(C)cc(OC)c(C)c2C)c1C [DDD73491]	>1 µM	–
0.96 µM	–	–	Cc1nn(C)c(C)c1N[S+](=O)([O-])c1ccc(NCC(C)c2ccccc2)nc1 (stereo not drawn) [DDD73495]	7.8 µM	–
5.6 µM	–	–	Cc1nn(C)c(C)c1N[S+](=O)([O-])c1ccc2c(c1)CCC2 [DDD71253]	>1 µM	–
–	0.004 µM	–	Cc1nn(C)c(C)c1N[S+](=O)([O-])c1c(F)cc(-c2ccnc(N3CCNCC3)c2)cc1F [DDD88323]	0.005 µM	–
9.8 µM	–	–	COc1ccc([S+](=O)([O-])Nc2c(C)nn(C)c2C)cc1 [DDD71286]	>1 µM	–
–	2 µM	–	Cc1nn(C)c(C)c1N[S+](=O)([O-])c1ccc(NCCCn2ccnc2)nc1 [DDD85633]	>50 µM	–
35 µM	–	–	Cc1nn(C)c(C)c1N[S+](=O)([O-])c1c(Cl)cc(-c2cccc(OCC(C)C)c2)cc1Cl [DDD73272]	>1 µM	–
1.9 µM	–	–	Cc1nn(C)c(C)c1N[S+](=O)([O-])c1ccc(Cn2ccnc2)cc1 [DDD73232]	18.6 µM	–

More lines, now with the values behind:

Compound	IC50 [2, 3]	IC50 [2, 4]	IC50 ([2]; T. brucei NMT, value without parentheses, read-out: IC50 (μM) NMT Enzyme (T. brucei NMT))	ED50 (μM) T. brucei ([1]; T. brucei cell growth)	ED50 (μM) T. brucei ([1]; T. brucei brucei, blood stream form, variant 221)
COc1cc(C)c([S+](=O)([O-])n2ccc(N)n2)c(C)c1C [DDD71644]	> 100 µM	–	–	>1 µM	–
Cc1nn(C)c(C)c1N[S+](=O)([O-])c1ccc(CNCCN2CCCCC2)cc1 [DDD85643]	–	8 µM	–	>1 µM	–
Cc1c(N[S+](=O)([O-])c2ccc(-c3cccc(CN4CCN(C)CC4)c3)cc2)c(CC(C)C)nn1C [DDD99736]	–	0.068 µM	–	0.41 µM	–
COc1cc(C)c([S+](=O)([O-])Nc2ccccc2)c(C)c1C [DDD71292]	> 100 µM	–	–	>1 µM	–
Cc1nc(-c2ccc([S+](=O)([O-])Nc3c(C)nn(C)c3C)cc2)cs1 [DDD71278]	12.1 µM	–	–	>1 µM	–
Cc1nn(C)c(C)c1N[S+](=O)([O-])c1ccc(COCCN2CCN(C)CC2)cc1 [DDD85649]	–	40 µM	–	>1 µM	–
CCc1ccc(-c2cc(Cl)c([S+](=O)([O-])Nc3c(C)nn(C)c3C)c(Cl)c2)cc1 [DDD73267]	44.5 µM	–	–	>1 µM	–
Cc1nn(C)c(C)c1N[S+](=O)([O-])c1cc(F)c(CCCN2CCN(C)CC2)cc1F [DDD90059]	–	0.054 µM	–	0.48 µM	–
Cc1nn(C)c(C)c1N[S+](=O)([O-])c1ccc(NCc2ccc3[nH]ccc3c2)nc1 [DDD73332]	0.34 µM	–	–	3.2 µM	–
Cc1nn(C)c(C)c1N[S+](=O)([O-])c1ccc(C2OCCO2)cc1 [DDD71276]	9.5 µM	–	–	>1 µM	–
Cc1nn(C)c(C)c1N[S+](=O)([O-])c1ccc([S+](=O)([O-])N2CCCC2)cc1 [DDD71607]	> 100 µM	–	–	>1 µM	–
Cc1nn(C)c(C)c1N[S+](=O)([O-])c1ccc(N2CCC(c3ccccc3)CC2)nc1 [DDD73481]	6.9 µM	–	–	>1 µM	–
Cc1cnn(-c2ccc(CNc3ccc([S+](=O)([O-])Nc4c(C)nn(C)c4C)cn3)cc2)n1 [DDD73493]	4.4 µM	–	–	>1 µM	–
Cc1nn(C)c(C)c1N[S+](=O)([O-])c1ccc(NC(CO)c2ccccc2)nc1 (stereo not drawn) [DDD73333]	> 100 µM	–	–	>1 µM	–
Cc1nn(C)c(C)c1N[S+](=O)([O-])c1ccc(CNc2ccc(Oc3ccccc3)cc2)cc1 [DDD73502]	4.8 µM	–	–	>1 µM	–
Cc1nn(C)c(C)c1N[S+](=O)([O-])c1ccc(NCc2ccc(N3CCOCC3)cc2)nc1 [DDD73475]	0.88 µM	–	–	10.5 µM	–
Cc1c(N[S+](=O)([O-])c2ccc(CCCCC3CCNCC3)cc2)c(CC(C)C)nn1C [DDD100158]	–	–	0.006 µM	–	0.048 µM
Cc1nn(C)c(C)c1N(CCc1ccccc1)[S+](=O)([O-])c1c(Cl)cc(Br)cc1Cl [DDD85606]	4.9 µM	–	–	3.6 µM	–
Cc1nn(C)c(C)c1N[S+](=O)([O-])c1ccc(N[C@H](C)c2ccc3ccccc3c2)nc1 [DDD73486]	2.8 µM	–	–	>1 µM	–
Cc1c(N[S+](=O)([O-])c2c(Cl)cc(CCCN3CCN(C)CC3)cc2Cl)c(CC(C)C)nn1C [DDD90060]	–	0.006 µM	–	0.02 µM	–
Cc1nn(C)c(C)c1N[S+](=O)([O-])c1ccc(N2CCC(N3CCN(Cc4ccccc4)CC3)C2)nc1 (stereo not drawn) [DDD87760]	–	34.4 µM	–	>1 µM	–
Cc1nn(C)c(C)c1N[S+](=O)([O-])c1ccc(NCc2nc3ccccc3s2)nc1 [DDD73477]	0.46 µM	–	–	6.0 µM	–
Cc1nn(C)c(C)c1N[S+](=O)([O-])c1ccc(CNCc2ccccc2)cc1 [DDD73265]	22.5 µM	–	–	>1 µM	–
Cc1nn(C)c(C)c1N[S+](=O)([O-])c1ccc(NC2CCc3ccccc32)nc1 (stereo not drawn) [DDD85613]	6.6 µM	–	–	>1 µM	–
Cc1nn(C)c(C)c1N[S+](=O)([O-])c1ccc(NCC(c2ccccc2)c2ccccc2)nc1 [DDD73492]	13.6 µM	–	–	>1 µM	–
Cc1nn(C)c(C)c1N[S+](=O)([O-])c1ccc2c(c1)C(C)C(=O)N2 (stereo not drawn) [DDD71637]	11.7 µM	–	–	>1 µM	–
Cc1nn(C)c(C)c1N[S+](=O)([O-])c1ccc(CNC2CCc3ccccc32)cc1 (stereo not drawn) [DDD85592]	44 µM	–	–	>1 µM	–
Cc1nn(C)c(C)c1N[S+](=O)([O-])c1ccc(NCCc2ccc(-c3ccccc3)cc2)nc1 [DDD73482]	60 µM	–	–	>1 µM	–
Cc1nn(C)c(C)c1N(CCCO)[S+](=O)([O-])c1ccc(-c2ccnc(N3CCNCC3)c2)cc1 [DDD87755, N-(3-Hydroxy-propyl)-4-(2-piperazin-1-yl-pyridin-4-yl)-N-(1,3,5-trimethyl-1H-pyrazol-4-yl)-benzenesulfonamide]	–	0.05 µM	–	0.98 µM	–
Cc1nn(C)c(C)c1N(C1CCCC1)[S+](=O)([O-])c1c(Cl)cc(Br)cc1Cl [DDD85600]	1.9 µM	–	–	5.9 µM	–
